Assay results reported in patent US5834506A, “Dihydropyrones with improved antiviral activity” (Warner-Lambert Company, priority 1997, dated 1998).
pEC50, pIC50: −log10 of the molar value. Where two headings read alike, the source gives them in different places.

Experiments:
[1] = Cellular toxicity in uninfected CEM cells (TC50); assay type: cell-based; details: human, inhibits 50% of the viability of uninfected cells
Procedure: (§1) Compounds were tested in lymphocyte derived CEM cells using the XTT cytopathic procedures and were performed at Southern Research Institute (Buckheit, et. al. Antiviral Res. 1993, 21, 247; see also Weislow, et al. J Nat. Cancer Inst., 1989, 81, 577). Compound concentrations were 0.32, 1, 3.2, 10, 32 and 100 uM. The EC50 represents the concentration of agent which reduces HIV cytopathic effects 50% relative to untreated control. EC95 represents the concentration of agent protecting the cells 95% relative to untreated control. Cellular toxicity of the agents are estimated from the TC50 which represents the concentration of the agent which inhibits 50% of the viability of uninfected cells.

HIV-1 protease = target: T1, HIV-1 protease (Human immunodeficiency virus type 1 group M subtype B, UniProt P04585); experiment: biochemical; details: read-out: Inhib of HIV-Protease IC50
T1 construct: Recombinant HIV-1 protease (>96% purity); purchased Bachem Bioscience Inc. (King of Prussia, PA)
From the text: The testing of specific 5,6-dihydropyrones as inhibitors of the HIV aspartyl protease, based on the study of the hydrolysis of an undecapeptide enzyme substrate, and the testing of the 5,6-dihydropyrones as inhibitors of viral growth and infectivity, based on the study of infection of H9 cell lines by the HIV-1iiib strain, are also disclosed. […] The methods employed follow the procedures of Tummino, et al. (Archives of Biochemistry and Biophysics 1995, 316, 523).
(§2) The compounds of the present invention were evaluated for their in vitro inhibition of HIV-1 protease and for their antiviral efficacy in HIV infected lymphocytes.
Recombinant HIV-1 protease (>96% purity) and HIV protease substrate III (the undecapeptide H-His-Lys-Ala-Arg-Val-Leu-Nph-Glu-Ala-Nle-Ser-NH2,>97% purity) were purchased from Bachem Bioscience Inc. (King of Prussia, PA).
The methods employed follow the procedures of Tummino, et al. (Archives of Biochemistry and Biophysics 1995, 316, 523). […] (total volume, 100 μl). […] The final inhibitor concentrations used were 0 (0.1, 0.2, in some experiments), 0.5, 1, 2, 5, 10, 20, 50, and 100 μM. The solution was mixed, incubated for 5 minutes and the reaction quenched by addition of trifluoracetic acid, 2% final. The (leu-p-nitro-phe) bond of the substrate is cleaved by the enzyme and substrate and products separated by reverse-phase HPLC. Absorbance was measured at 220 nm, peak areas determined, and percentage conversion to product used to calculate percentage control (=[% conversion (+inhibitor)/% conversion (-inhibitor)]×100).

[2] = test system: HIV in lymphocyte derived CEM cells; experiment: Cellular Infection Assay, antiviral efficacy in HIV infected CEM cells (XTT cytopathic procedure); assay type: cell-based; details: Human immunodeficiency virus 1, CCRF-CEM, CEM cells; for pEC50: reduces HIV cytopathic effects 50% relative to untreated control, read-out: Antiviral Efficacy EC50; for EC95: protecting the cells 95% relative to untreated control
Procedure: as §2, §1

[3] = 6.0 nM HIV-1 protease, 40 μM substrate III, 37° C., 5 minutes

SMILES | CC50 [1] | pIC50 (HIV-1 protease) | pEC50 [2] | EC95 [2] | pIC50 (HIV-1 protease; [3])
Cc1cc(SC2=C(O)CC(CCc3cccc(O)c3)(c3ccccc3)OC2=O)c(C(C)(C)C)cc1CO (stereo not drawn) [Example 37, 3-(2-tert-Butyl-4-hydroxymethyl-5-methyl-phenylsulfanyl)-4-hydroxy-6-[2-(3-hydroxy-phenyl)-ethyl]-6-phenyl-5,6-dihydro-pyran-2-one] | > 100000 nM | 8.60 | 5.21 | – | –
Cc1cc(SC2=C(O)C[C@@](CCc3ccc(O)cc3)(C(C)C)OC2=O)c(C(C)(C)C)cc1CO [Example 38, (S)-3-(2-tert-Butyl-4-hydroxymethyl-5-methyl-phenylsulfanyl)-4-hydroxy-6-[2-(4-hydroxy-phenyl)-ethyl]-6-isopropyl-5,6-dihydro-pyran-2-one (+)] | > 100000 nM | 9.00 | > 6.52 | 1000 nM | –
Cc1cc(SC2=C(O)CC(CCc3cccc(O)c3)(C3CCCC3)OC2=O)c(C(C)(C)C)cc1CO (stereo not drawn) [Example 39, 3-(2-tert-Butyl-4-hydroxymethyl-5-methyl-phenylsulfanyl)-6-cyclopentyl-4-hydroxy-6-[2-(3-hydroxy-phenyl)-ethyl]-5,6-dihydro-pyran-2-one] | > 100000 nM | – | > 6.52 | 600 nM | 8.72
Cc1cc(SC2=C(O)CC(C)(CCc3ccc(O)cc3)OC2=O)c(C(C)(C)C)cc1OS(N)(=O)=O (stereo not drawn) [Example 43] | 69000 nM | – | 5.28 | 9400 nM | 8.74
Cc1cc(SC2=C(O)CC(CCc3ccccc3)(c3ccc(OCCO)cc3)OC2=O)c(C(C)(C)C)cc1OS(=O)(=O)N1CCN(C)CC1 (stereo not drawn) [Example 46] | 58000 nM | – | 5.27 | 9800 nM | 7.92
CCNS(=O)(=O)Oc1cc(C(C)(C)C)c(SC2=C(O)CC(CCc3ccc(O)c(OC)c3)(c3ccc(OCCO)cc3)OC2=O)cc1C (stereo not drawn) [Example 48] | > 100000 nM | – | 5.16 | 26000 nM | 8.62
Cc1cc(SC2=C(O)CC(CCc3ccc(O)cc3)(C(C)C)OC2=O)c(C(C)(C)C)cc1NC(=O)c1ccccc1 (stereo not drawn) [Example 58] | 66000 nM | – | 5.55 | 24000 nM | 7.68
Cc1cc(SC2=C(O)CC(CCc3ccc4c(c3)OCO4)(C(C)C)OC2=O)c(C(C)(C)C)cc1CO (stereo not drawn) [Example 61] | 78000 nM | – | 6.00 | 15000 nM | 8.51
Cc1cc(SC2=C(O)CC(CCc3ccc(O)cc3)(C3CCCC3)OC2=O)c(C(C)(C)C)cc1CO (stereo not drawn) [Example 62] | > 100000 nM | – | 6.22 | 2500 nM | 8.51
Cc1cc(SC2=C(O)CC(CCc3ccc(O)cc3)(C(C)C)OC2=O)c(C(C)(C)C)cc1OS(=O)(=O)N1CCN(C)CC1 (stereo not drawn) [Example 67] | > 100000 nM | 8.51 | 6.30 | 2000 nM | –
Cc1cc(SC2=C(O)CC(C)(CCc3ccc(O)cc3)OC2=O)c(C(C)(C)C)cc1NC(=O)c1ccc(C#N)cc1 (stereo not drawn) [Example 68] | > 100000 nM | – | 4.80 | 30000 nM | 7.25
Cc1cc(SC2=C(O)CC(C)(CCc3ccc(O)cc3)OC2=O)c(C(C)(C)C)cc1NS(=O)(=O)c1ccc(F)cc1 (stereo not drawn) [Example 71] | 93000 nM | – | 5.62 | 8600 nM | 8.43
Cc1cc(SC2=C(O)CC(CCc3ccc(N)cc3C)(C3CCCCC3)OC2=O)c(C(C)(C)C)cc1CO (stereo not drawn) [Example 72] | 66000 nM | – | 6.30 | 8500 nM | 8.36
Cc1cc(SC2=C(O)CC(CCc3ccc(O)cc3)(C(C)C)OC2=O)c(C(C)(C)C)cc1NS(=O)(=O)c1cccs1 (stereo not drawn) [Example 77] | > 100000 nM | – | 5.74 | 5200 nM | 8.06
Cc1cc(SC2=C(O)CC(CCc3ccc(O)cc3)(C(C)C)OC2=O)c(C(C)(C)C)cc1NC(=S)N1CCNCC1 (stereo not drawn) [Example 83] | > 100000 nM | – | 4.37 | 92000 nM | 7.39
Cc1cc(SC2=C(O)CC(CCc3ccc(N)cc3)(C(C)C)OC2=O)c(C(C)(C)C)cc1OS(=O)(=O)c1ccc(C#N)cc1 (stereo not drawn) [Example 86] | 53000 nM | – | 6.40 | 3700 nM | 8.89
CCNS(=O)(=O)Oc1cc(C(C)(C)C)c(SC2=C(O)CC(CCc3ccc(O)cc3)(C3CCN(C(C)=O)CC3)OC2=O)cc1C (stereo not drawn) [Example 89] | > 100000 nM | – | 4.49 | 89000 nM | 7.92
Cc1cc(SC2=C(O)CC(CCc3ccc(O)cc3)(C(C)C)OC2=O)c(C(C)(C)C)cc1N(C)C (stereo not drawn) [Example 93] | 68000 nM | – | 5.72 | 10000 nM | 7.96
Cc1cc(SC2=C(O)CC(CCc3ccc(O)cc3)(C3CCC3)OC2=O)c(C(C)(C)C)cc1CO (stereo not drawn) [Example 98] | > 100000 nM | – | 6.10 | 1900 nM | 8.66
Cc1ccc(C(C)(C)C)c(SC2=C(O)CC(CCc3ccccc3)(CCc3ccccc3)OC2=O)c1 [Ref A, 3-(2-tert-Butyl-5-methyl-phenylsulfanyl)-4-hydroxy-6,6-diphenethyl-5,6-dihydro-pyran-2-one, reference compound] | 23000 nM | – | < 4.64 | – | 6.82
Cc1ccc(C(C)(C)C)c(SC2=C(O)CC(CCc3ccccc3)(CCC(C)C)OC2=O)c1 (stereo not drawn) [Ref C, 3-(2-tert-Butyl-5-methyl-phenylsulfanyl)-4-hydroxy-6-(3-methyl-butyl)-6-phenethyl-5,6-dihydro-pyran-2-one, reference compound] | 28000 nM | – | < 4.55 | – | 7.15
